Measured values published in patent US11970509B1, “Water soluble nano-sized imine Ru(III) complex based on 4-aminobenzene sodium sulphonate for biomedical applications” (KING FAISAL UNIVERSITY, priority 2023, dated 2024).
Values after ≈ are worked out from the molar mass of the structure shown. Blank lines part the entries; values can stand above or below the compound they belong to.

Columns and labels:
[1] = test system: Breast cancer cells line; test: Cytotoxic activity, Sulfo-Rhodamine-B-stain (SRB), breast cancer cell line; conditions: Homo sapiens, 48 h
[2] = test system: Aspergillus flavus; test: Antifungal activity, well diffusion method, Aspergillus flavus; format: cell-based
Procedure: To evaluate antimicrobial activity, the fungal strain (Aspergillus flavus), was used. These strains cultured in nutrient agar and Muller-Hinton medium. Fluconazole compounds were used as a standard drug for comparison.
Antifungal activities of the prepared water soluble nano-complex were studied against three fungal cultures using well diffusion method. The tested fungi were inoculated in Sabouraud dextrose broth medium (Hi-Media Mumbai) and incubated at 35° C. for 72 h and subsequently a suspension of about 1.60×10^4-6.00×10^4 c.f.u/ml was introduced agar plates and a sterile glass spreader was used for even distribution of the inoculum. The discs measuring 6 mm in diameter were prepared from Whatman No. 1 filter paper and sterilized by dry heat at 140° C. for 1 h. The sterile discs previously soaked in known concentration of the tested compounds were placed in Sabouraud dextrose Agar (SDA) plates. The plates were inverted and incubated at 35° C. for 7 days. The susceptibility was assessed on the basis of diameter of inhibition against albicans and non-albicans strain of fungi.

[3] = test system: Escherichia coli(-ve); test: Antimicrobial activity, agar well diffusion method, E. coli; format: cell-based
Procedure: To evaluate antimicrobial activity, the bacterial strain Escherichia coli(-ve), was used. These strains cultured in nutrient agar and Muller-Hinton medium. Ofloxacin compounds were used as a standard drug for comparison. The susceptibilities of such growth rate of microorganisms were measured in vitro by agar well diffusion method. The tested nano complex was dissolved in dimethylsulfoxide at different concentrations (10 and 20 mg/ml). 1 cm^3 of a 24 h broth culture containing 10^6 CFU/cm^3 was placed in sterile Petri-dishes. Molten nutrient agar (15 cm^3) maintained at 45° C. was then poured into the Petri-dishes and allowed to solidify. Then holes of 6 mm diameter were formed in the agar using a sterile cork borer and these holes were completely filled with the test solutions. The plates were incubated for 24 h at 37° C. After the incubation period, the zone of inhibition of each well was determined by measuring the zones of growth inhibition (mm) against the test microorganisms with zone reader (Hi Antibiotic zone scale). […] The measurements were made in triplicate for each compound and their average values are reported.

Structure (SMILES): COc1cccc2c1C(=O)c1c(O)c3c(c(O)c1C2=O)C[C@@](O)(C(=O)CO)C[C@@H]3O[C@H]1C[C@H](N)[C@H](O)[C@H](C)O1 [Doxorubicin, reference compound]
IC50 [1]: 4 µg/mL (≈ 7.36 µM)

MIC [2]: 1.75 µg/mL (≈ 5.71 µM)
Structure (SMILES): OC(Cn1cncn1)(Cn1cncn1)c1ccc(F)cc1F [Fluconazol, reference compound]
inhibition zone ([2]; well diffusion, 35° C. for 7 days): 28 mm

MIC ([3]; Escherichia coli): 2.5 µg/mL (≈ 6.92 µM)
Structure (SMILES): CC1COc2c(N3CCN(C)CC3)c(F)cc3c(=O)c(C(=O)O)cn1c23 (centres unmarked) [Ofloxacin, reference compound]
inhibition zone ([3]; agar well diffusion, 24 h at 37° C.): 38 mm
